Test results as given in patent US12030896B2, “PIKfyve inhibitors” (Mayo Foundation for Medical Education and Research, priority 2018, dated 2024).

Columns and labels:
Type in all cases: cell-based
[1] = test system: Human osteosarcoma cells (U2OS, 143B, MG63, and SAOS2) and human pancreatic cancer cells (Panc-1, CFPAC); experiment: Killing of osteosarcoma and pancreatic cell lines (Alamar Blue); details: 72 hrs
Protocol: Human osteosarcoma cells (U2OS, 143B, MG63, and SAOS2) and human pancreatic cancer cells (Panc-1, CFPAC) were similarly tested for killing by the compound, as shown in FIG. 5. All experiments in FIG. 5 were performed using DMEM:F12 media (Life Technologies) as the base formulation for “complete” media for experiments with 143B and MG63 cells. Also, Alamar Blue was used to assay the relative number of viable cells per well after 72 hrs of growth. For these assays, growth media was removed from the cells, and replaced with fresh (“complete) media containing Alamar Blue reagent (Life Technologies) diluted 1:10. Plates were incubated at 5% CO2, 37° C. for 40 min then removed from the incubator and fluorescence was measured using a Synergy H1 microplate reader (Excitation: 560 nm Emission: 590 nm). Values represent raw photo counts minus the value of a well with Alamar Blue reagent (1:10 in medium) but no cells.

U251 or RKO cells = experiment: Cathepsin D western blotting; details: 18 hours
Protocol: Macroautophagy (hereafter “autophagy”) is a process that requires precise fusion of endosomes, autophagosomes, and lysosomes. Lysates from cells treated with Example 1 were prepared and probed by western blotting for LC3-I and LC3-II. Increased levels of LC3-II and increased p62 (sequestesome) were found showing the increased drive to undergo autophagy, in the face of inability to complete the process (i.e. ineffective autophagy). Lysosomes are the final destination of proteins destined for degradation by autophagy, and proteolysis in this organelle depends upon cathepsins among other enzymes.
U251 or RKO cells were treated with Example 1 at the indicated concentrations for 18 hours, and then analyzed by western blotting for cathepsin D and actin (loading control).
U251 or RKO cells were plated onto 10 cm tissue culture dishes and grown in the conditions described previously. When cells were growing in log phase and reached approximately 60% confluency, Example 1 was diluted into the growth media at the indicated concentrations. Cells were incubated at 5% CO2, 37° C. for 18 hr, then washed and harvested as described previously. Cells were pelleted by centrifugation at 180×g, resuspended in 20 mL of 1×PBS pH 7.4, and centrifuged again. […]

RKO (colon cancer) cells = experiment: LC3 western blotting (autophagy); details: 1 μM

Cc1ccc(Nc2nc(N/N=C/c3c[nH]c4ccccc34)nc(N3CCOCC3)n2)cc1 [Example 1, (E)-4-(2-((1H-indol-3-yl)methylene)hydrazinyl)-6-morpholino-N-(p-tolyl)-1,3,5-triazin-2-amine]
cell killing [1]: killing | mature cleaved cathepsin (U251 or RKO cells): relative loss | uncleaved precursor cathepsin D (U251 or RKO cells): accumulation | induction of LC3 (RKO (colon cancer) cells): dramatic and rapid induction
